In one experiment the target is Hepatocyte growth factor receptor (Homo sapiens, UniProt P08581). The experiment in a line: Inhibition of N-terminal 6His-tagged human recombinant c-MET expressed in baculovirus infected Sf21 cells using poly Ala-Glu-Lys-Tyr (6:2:5:1) as substrate after 3 hrs by scintillation counting in presence of [33P]-ATP.
Hepatocyte growth factor receptor, sequence (P08581 whole entry): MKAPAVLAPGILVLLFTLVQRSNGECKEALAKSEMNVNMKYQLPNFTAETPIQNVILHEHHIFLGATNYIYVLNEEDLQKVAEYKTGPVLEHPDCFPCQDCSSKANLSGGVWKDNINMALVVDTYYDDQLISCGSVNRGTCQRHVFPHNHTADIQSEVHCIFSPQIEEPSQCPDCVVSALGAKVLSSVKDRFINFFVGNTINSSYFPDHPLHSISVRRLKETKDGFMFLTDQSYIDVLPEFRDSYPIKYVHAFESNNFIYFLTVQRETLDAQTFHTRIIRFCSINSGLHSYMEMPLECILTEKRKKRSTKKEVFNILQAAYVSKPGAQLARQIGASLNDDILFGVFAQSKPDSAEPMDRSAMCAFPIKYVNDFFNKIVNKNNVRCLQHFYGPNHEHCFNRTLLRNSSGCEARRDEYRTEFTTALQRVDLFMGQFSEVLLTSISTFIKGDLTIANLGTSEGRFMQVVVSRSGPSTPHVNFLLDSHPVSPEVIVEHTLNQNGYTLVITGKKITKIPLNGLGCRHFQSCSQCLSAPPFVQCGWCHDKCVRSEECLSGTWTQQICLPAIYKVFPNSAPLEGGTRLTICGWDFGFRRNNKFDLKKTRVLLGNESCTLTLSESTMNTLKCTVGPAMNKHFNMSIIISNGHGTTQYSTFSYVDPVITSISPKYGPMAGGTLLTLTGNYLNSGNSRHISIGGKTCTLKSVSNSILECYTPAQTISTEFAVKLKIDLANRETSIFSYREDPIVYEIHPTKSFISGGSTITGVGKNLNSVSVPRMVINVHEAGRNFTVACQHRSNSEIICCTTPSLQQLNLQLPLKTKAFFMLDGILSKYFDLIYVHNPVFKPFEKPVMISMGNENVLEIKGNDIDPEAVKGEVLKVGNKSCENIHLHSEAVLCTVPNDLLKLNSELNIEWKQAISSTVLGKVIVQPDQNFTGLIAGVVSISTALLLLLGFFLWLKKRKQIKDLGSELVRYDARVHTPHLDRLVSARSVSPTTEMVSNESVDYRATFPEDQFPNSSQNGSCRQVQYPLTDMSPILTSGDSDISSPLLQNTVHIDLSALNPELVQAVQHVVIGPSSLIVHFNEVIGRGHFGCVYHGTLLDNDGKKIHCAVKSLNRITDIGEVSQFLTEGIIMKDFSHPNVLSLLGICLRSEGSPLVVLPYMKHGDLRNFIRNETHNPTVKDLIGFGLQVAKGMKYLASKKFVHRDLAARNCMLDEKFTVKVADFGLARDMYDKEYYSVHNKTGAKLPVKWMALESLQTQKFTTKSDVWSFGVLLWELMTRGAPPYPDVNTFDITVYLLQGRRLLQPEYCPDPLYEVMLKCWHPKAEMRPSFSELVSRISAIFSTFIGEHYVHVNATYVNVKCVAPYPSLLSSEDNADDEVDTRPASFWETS
Settings: not given
On to `Cc1ccc2c(c1)oc(=O)n2Cc1cccc(NC(=O)OCCCN2CCOCC2)c1`, for which the 50% inhibitory concentration (IC50) was 1600 nM.

Test system in another experiment: not listed separately
The experiment in a line: cells. The following applies: Homo sapiens, EBC-1, 72 h.
Description: Cytotoxicity against human EBC1 cells assessed as inhibition of cell proliferation after 72 hrs by sulforhodamine B assay
Compound `COC(=O)c1ccc2oc(=O)n(CCOc3ccnc4cc(OC)ccc34)c2c1` displayed an IC50 above 500 nM.

In the case of `Cc1ccc2c(c1)oc(=O)n2CCOc1ccnc2cc(NCCCN3CCOCC3)ccc12`, inhibition was half-maximal at 58 nM (IC50).

`CN1CCN(CCCOC(=O)Nc2cccc(Cn3nc(-n4ccc5ccc(F)cc54)ccc3=O)c2)CC1` gave an IC50 of 672 nM.

`Cc1ccc2c(c1)oc(=O)n2Cc1cccc(NC(=O)OCCCN2CCOCC2)c1` gave a 50% inhibitory concentration (IC50) of 1600 nM.

For the compound `COc1ccc2c(OCCn3c(=O)oc4ccc(F)cc43)ccnc2c1`, the IC50 is above 500 nM.

`Cc1ccc2c(c1)oc(=O)n2CCOc1ccnc2cc(OCCCN3CCOCC3)ccc12` returned a half-maximal inhibitory concentration (IC50) of 170 nM.

`COc1ccc2c(OCCn3c(=O)oc4ccc(-c5cnn(C)c5)cc43)ccnc2c1` registered an IC50 above 500 nM.

With `COC(=O)c1ccc2c(c1)oc(=O)n2CCOc1ccnc2cc(OC)ccc12`, the IC50 was above 500 nM.

Take `C[C@@H](Oc1cc(-c2cnn(C3CCNCC3)c2)cnc1N)c1c(Cl)ccc(F)c1Cl` [CRIZOTINIB]: 44 nM corresponded to half-maximal inhibition (IC50).

`Cn1cc(-c2ccc3c(OCCn4c(=O)oc5cc(-c6cnn(C)c6)ccc54)ccnc3c2)cn1` registered an IC50 of 5 nM.

Take `Cc1ccc2c(c1)oc(=O)n2CCOc1ccnc2cc(OCCCCN3CCOCC3)ccc12`: the concentration for half-maximal inhibition (IC50) was found to be 330 nM.

In turn, `COCCOc1ccc2c(OCCn3c(=O)oc4cc(C)ccc43)ccnc2c1` had a concentration for half-maximal inhibition (IC50) above 500 nM.

As to `COc1ccc2c(OCCn3c(=O)oc4cc(N5CCOCC5)ccc43)ccnc2c1`, the IC50 was above 500 nM.

The compound `COc1ccc2c(OCCn3c(=O)oc4cc(-c5cnn(C)c5)ccc43)ccnc2c1` yielded an IC50 of 100 nM.

In the case of `COc1ccc2c(OCCn3c(=O)oc4cc(F)ccc43)ccnc2c1`, the concentration for half-maximal inhibition (IC50) is above 500 nM.

Take `Cc1ccc2c(c1)oc(=O)n2CCOc1ccnc2cc(OCCN3CCOCC3)ccc12`: the half-maximal inhibitory concentration (IC50) came to 120 nM.

`COc1ccc2c(OCCn3c(=O)oc4cc(OC)ccc43)ccnc2c1`: the IC50 is above 500 nM.

For the compound `Cc1ccc2c(c1)oc(=O)n2CCOc1ccnc2cc(-c3cnn(C)c3)ccc12`, the IC50 came to 35 nM.

For the compound `COc1ccc2c(OCCn3c(=O)oc4cc(N)ccc43)ccnc2c1`, the IC50 came out at 160 nM.

For `Cc1ccc2c(c1)oc(=O)n2CCOc1ccnc2cc(OCCCN3CCN(C)CC3)ccc12`, the IC50 was 170 nM.

The compound `COc1ccc2c(OCCn3c(=O)oc4ccc(C)cc43)ccnc2c1` yielded an IC50 above 500 nM.

For the compound `COc1ccc2c(OCCn3c(=O)oc4cc(C)ccc43)ccnc2c1`, the IC50 was above 500 nM.

Consider `Cc1ccc2c(c1)oc(=O)n2CCOc1ccnc2cc(OCCCN3CCCC3)ccc12`, for which the IC50 is above 500 nM.

In general, IC50 refers to the concentration needed to halve the response being measured.

The record behind these values is ChEMBL document CHEMBL3784915, “Design and synthesis of novel benzo[d]oxazol-2(3H)-one derivatives bearing 7-substituted-4-enthoxyquinoline moieties as c-Met kinase inhibitors” (Eur J Med Chem, 2016).
